From ChEMBL document CHEMBL2074136, “Citrus juices inhibit the function of human organic anion-transporting polypeptide OATP-B” (Drug Metab Dispos, 2005) come the findings set out here.

Assay type in all cases: functional, cell-based
Data set [1] concerns the target T1, Solute carrier organic anion transporter family member 2B1 (Homo sapiens, UniProt O94956).
T1 sequence (O94956 whole entry): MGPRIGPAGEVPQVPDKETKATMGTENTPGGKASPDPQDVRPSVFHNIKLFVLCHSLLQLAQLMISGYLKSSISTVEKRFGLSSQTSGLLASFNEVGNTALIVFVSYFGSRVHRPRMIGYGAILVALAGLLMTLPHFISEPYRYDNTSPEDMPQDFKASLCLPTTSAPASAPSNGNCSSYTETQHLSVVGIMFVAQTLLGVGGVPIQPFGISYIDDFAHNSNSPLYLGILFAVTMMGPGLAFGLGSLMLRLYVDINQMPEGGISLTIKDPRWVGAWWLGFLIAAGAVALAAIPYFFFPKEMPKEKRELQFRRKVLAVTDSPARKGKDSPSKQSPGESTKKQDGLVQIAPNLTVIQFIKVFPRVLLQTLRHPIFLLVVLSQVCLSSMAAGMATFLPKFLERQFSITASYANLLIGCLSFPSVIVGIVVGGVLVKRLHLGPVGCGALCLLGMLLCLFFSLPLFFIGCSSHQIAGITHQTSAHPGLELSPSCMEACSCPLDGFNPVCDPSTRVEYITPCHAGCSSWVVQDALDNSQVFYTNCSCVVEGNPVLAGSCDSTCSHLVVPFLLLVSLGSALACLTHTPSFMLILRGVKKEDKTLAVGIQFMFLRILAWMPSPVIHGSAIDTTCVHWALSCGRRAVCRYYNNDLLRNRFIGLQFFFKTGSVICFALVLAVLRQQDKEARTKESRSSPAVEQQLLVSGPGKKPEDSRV
Briefly: TP_TRANSPORTER: uptake of DHEAS at a concentration of 17.4nM in OATP2B1-expressing HEK293 cells.

The target in data set [2] is T1, Solute carrier organic anion transporter family member 2B1. Briefly: TP_TRANSPORTER: inhibition of glibenclamide uptake (glibenclamide: 10nM) in OATP2B1-expressing HEK293 cells. Also noted: scale not given: the % may be the effect or the level left.
Data set [3] concerns the target T2, OATP2B1 (Homo sapiens, UniProt O94956).
T2 sequence (O94956 whole entry): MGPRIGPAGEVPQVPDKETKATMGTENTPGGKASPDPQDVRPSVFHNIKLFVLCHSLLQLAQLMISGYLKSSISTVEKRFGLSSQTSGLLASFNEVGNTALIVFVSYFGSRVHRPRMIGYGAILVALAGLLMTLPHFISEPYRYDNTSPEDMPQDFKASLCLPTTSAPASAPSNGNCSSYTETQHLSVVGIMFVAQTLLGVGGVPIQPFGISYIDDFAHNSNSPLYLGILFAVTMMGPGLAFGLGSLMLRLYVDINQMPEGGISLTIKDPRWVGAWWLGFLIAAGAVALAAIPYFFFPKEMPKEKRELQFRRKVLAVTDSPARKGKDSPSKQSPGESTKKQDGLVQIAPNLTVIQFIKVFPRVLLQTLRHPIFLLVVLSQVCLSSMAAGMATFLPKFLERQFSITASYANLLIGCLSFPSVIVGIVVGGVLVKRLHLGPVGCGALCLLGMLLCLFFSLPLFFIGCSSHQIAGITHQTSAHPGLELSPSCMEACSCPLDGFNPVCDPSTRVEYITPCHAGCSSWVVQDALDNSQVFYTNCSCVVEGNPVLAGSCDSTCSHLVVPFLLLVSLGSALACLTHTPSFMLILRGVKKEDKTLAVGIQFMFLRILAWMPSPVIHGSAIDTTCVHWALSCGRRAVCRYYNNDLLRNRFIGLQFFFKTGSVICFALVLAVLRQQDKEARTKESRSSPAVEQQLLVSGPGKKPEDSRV
Briefly: (§1) TP_TRANSPORTER: inhibition of Estrone-3-sulfate uptake (Estrone-3-sulfate: 10nM) in OATP2B1-expressing HEK293 cells. Also noted: scale not given: the % may be the effect or the level left. The conditions noted are these: HEK293 cells expressing OATP2B1, probe Estrone-3-sulfate (10 nM).

The target in data set [4] is T1, Solute carrier organic anion transporter family member 2B1. The data set is described as §1. Also noted: scale not given: the % may be the effect or the level left. To be noted: hek293.
Substrate in data set [5]: COc1ccc(Cl)cc1C(=O)NCCc1ccc(S(=O)(=O)NC(=O)NC2CCCCC2)cc1
As to the kind of experiment: (§2) TP_TRANSPORTER: uptake in OATP2B1-expressing HEK293 cells.

Substrate in data set [6]: C[C@]12CC[C@@H]3c4ccc(OS(=O)(=O)O)cc4CC[C@H]3[C@@H]1CCC2=O
The data set is described as §2.

On to `C[C@]12CC[C@H](OS(=O)(=O)O)CC1=CC[C@@H]1[C@@H]2CC[C@]2(C)C(=O)CC[C@@H]12` [PRASTERONE SULFURIC ACID], for which the Activity entry in data set [1] was “substrate [+]”.

As for `O=c1c(O)c(-c2ccc(O)c(O)c2)oc2cc(O)cc(O)c12` [QUERCETIN], the Activity result in data set [2] is “is not an inhibitor [(-)]”; in data set [3], 80%. Consider `O=C1C[C@@H](c2ccc(O)cc2)Oc2cc(O)cc(O)c21` [NARINGENIN], for which the Activity in data set [2] was 45%; in data set [3], 72%. For the molecule ORANGE JUICE, the figures for the Activity in data set [2] and in data set [4] were 50% and 45%, respectively. On to `CC(C)=CCC/C(C)=C/COc1c2ccoc2cc2oc(=O)ccc12` [BERGAMOTTIN], for which the Activity entry was “is not an inhibitor [(-)]” in data set [2] and 40% in data set [3]. As to `COc1ccc(-c2cc(=O)c3c(OC)c(OC)c(OC)c(OC)c3o2)cc1` [TANGERETIN], the figures for the Activity in data set [2] and in data set [3] were 25% and 89%, respectively. Consider GRAPEFRUIT JUICE, for which the Activity in data set [2] came out at 38%; in data set [4], 18%.

Consider `COc1ccc(-c2cc(=O)c3c(OC)c(OC)c(OC)c(OC)c3o2)cc1OC` [NOBILETIN], for which the values for the Activity in data set [2] and in data set [3] were 58% and 40%, respectively. For the molecule `C/C(=C\COc1c2ccoc2cc2oc(=O)ccc12)CCC(O)C(C)(C)O` (stereo not drawn) [DIHYDROXYBERGAMOTTIN], the values for the Activity in data set [2] and in data set [3] were 35% and 58%, respectively.

As to APPLE JUICE, the Activity result in data set [2] was “is not an inhibitor [(-)]”; in data set [4], 89%.

Consider `C[C@@H]1O[C@@H](O[C@H]2[C@H](Oc3cc(O)c4c(c3)O[C@H](c3ccc(O)cc3)CC4=O)O[C@H](CO)[C@@H](O)[C@@H]2O)[C@H](O)[C@H](O)[C@H]1O` [NARINGIN], for which the Activity in data set [2] amounted to 70%; in data set [3], 61%.

B1: Solute carrier organic anion transporter family member 2B1 (Homo sapiens) (protein)
chain: MGPRIGPAGEVPQVPDKETKATMGTENTPGGKASPDPQDVRPSVFHNIKLFVLCHSLLQLAQLMISGYLKSSISTVEKRFGLSSQTSGLLASFNEVGNTALIVFVSYFGSRVHRPRMIGYGAILVALAGLLMTLPHFISEPYRYDNTSPEDMPQDFKASLCLPTTSAPASAPSNGNCSSYTETQHLSVVGIMFVAQTLLGVGGVPIQPFGISYIDDFAHNSNSPLYLGILFAVTMMGPGLAFGLGSLMLRLYVDINQMPEGGISLTIKDPRWVGAWWLGFLIAAGAVALAAIPYFFFPKEMPKEKRELQFRRKVLAVTDSPARKGKDSPSKQSPGESTKKQDGLVQIAPNLTVIQFIKVFPRVLLQTLRHPIFLLVVLSQVCLSSMAAGMATFLPKFLERQFSITASYANLLIGCLSFPSVIVGIVVGGVLVKRLHLGPVGCGALCLLGMLLCLFFSLPLFFIGCSSHQIAGITHQTSAHPGLELSPSCMEACSCPLDGFNPVCDPSTRVEYITPCHAGCSSWVVQDALDNSQVFYTNCSCVVEGNPVLAGSCDSTCSHLVVPFLLLVSLGSALACLTHTPSFMLILRGVKKEDKTLAVGIQFMFLRILAWMPSPVIHGSAIDTTCVHWALSCGRRAVCRYYNNDLLRNRFIGLQFFFKTGSVICFALVLAVLRQQDKEARTKESRSSPAVEQQLLVSGPGKKPEDSRV
Consider B1, for which the figures for the Michaelis constant (Km) in data set [5] and in data set [6] were 6.26 µM and 7.14 µM, respectively.
